Data reported in paper PMC10975012, “The Active Glucuronide Metabolite of the Brain Protectant IMM-H004 with Poor Blood–Brain Barrier Permeability Demonstrates a High Partition in the Rat Brain via Multiple Mechanisms” (Pharmaceutics, 2024).

Legend:
[1] = tested on: pyrilamine-sensitive H^+/OC antiporter; assay: Identification of transporters using inhibitors in hCMEC/D3 cells: H+/OC antiporter; assay type: cell-based, human; details: substrate 10 μmol/L; for reduction of uptake by quinidine: quinidine 100 μmol/L; for reduction of uptake by verapamil: verapamil 100 μmol/L
Procedure: (§1) The toxicity of all compounds, including inhibitors and substrates, toward hCMEC/D3 cells, was assessed using the 3-(4,5-Dimethylthiazol-2-yl)-2,5-diphenyltetrazolium bromide (MTT) reduction assay as described previously. To assess the effects of pyrilamine-sensitive proton-coupled organic cation (H^+/OC) antiporter, organic anion transporter (OAT), organic anion-transporting polypeptides (OATPs), organic cation transporter (OCT), and novel organic cation–carnitine transporter (OCTN) inhibitors on the uptake process, IMM-H004 or IMM-H004G (10 µmol/L) combined with the inhibitors were added to the medium after preincubating the cells with the inhibitors for 30 min. For evaluating the impact of the multidrug and toxin extrusion transporter (MATE), P-glycoprotein (P-gp), multidrug resistance protein (MRP), and breast cancer resistance protein (BCRP) on the uptake, IMM-H004 or IMM-H004G (10 µmol/L) was preincubated with the cells for 2 h before the addition of the inhibitors. After removing the supernatant, the cells were washed twice with prewarmed HBSS and incubated with fresh HBSS for 20 min. At the end of incubation, the supernatants were collected. The cells were washed with cold HBSS and lysed using RIPA buffer. The protein content of the lysed cells was determined using a bicinchoninic acid (BCA) assay kit (Beyotime Inc., Shanghai, China). The results were expressed as a percentage of the vehicle control.

[2] = tested on: OAT, OCT, OCTN, BCRP, and MRP; assay: Identification of transporters using inhibitors in hCMEC/D3 cells: other transporters; assay type: cell-based, human; details: substrate 10 μmol/L
Procedure: as §1, with “The cells were washed with cold HBSS and lysed using RIPA buffer.” left out

[3] = In vitro metabolism in rat brain homogenate; assay type: in vitro ADME
Procedure: Rat brains were homogenized in chilled saline (1:3, w/v) on ice to obtain the brain homogenate. The incubation mixtures composed of the brain homogenate (2 mg protein/mL), alamethicin (50 μg/mg protein), IMM-H004 (10 μmol/L), and UDPGA (5 mmol/L) in a final volume of 0.2 mL of Tris-HCl buffer (50 mmol/L, pH 7.4) containing 5 mmol/L of MgCl2. Before initiating the reaction, the brain homogenate was preincubated with alamethicin on ice for 15 min. Subsequently, IMM-H004 and UDPGA were added to initiate the reaction. After incubating at 37 °C for 60 min, the reaction was quenched by adding two volumes of acetonitrile containing IS (0.1 μg/mL). On the other hand, IMM-H004G (1 μmol/L) was incubated with the brain homogenate (2 mg protein/mL) for up to 4 h. The concentrations of IMM-H004 and IMM-H004G were determined by LC-MS/MS.

In situ brain perfusion = assay type: in vivo, rat; details: 10 μmol/L
Procedure: The rat brain was perfused following a previously described method. Briefly, the common carotid arteries on both sides were cannulated and connected to the perfusion system, while the external carotid artery was ligated. At the beginning of perfusion, the jugular veins on both sides were quickly incised. The perfusion procedure consisted of a preperfusion wash with saline for 1 min, followed by drug infusion (2 µmol/L IMM-H004 or IMM-H004G) for 2, 5, and 10 min, and concluded with a postperfusion wash (saline for 5 min) at a rate of 4.0 mL/min. To examine the impact of P-gp (PSC833, 5 µmol/L) and OATP (rifamycin SV, 100 µmol/L) on BBB transport, the perfusate containing the inhibitor was perfused for 1 min, and then the mixture of IMM-H004 or IMM-H004G (10 µmol/L) and the inhibitor was perfused for 10 min. Following the perfusion, the rats were decapitated, and their brains were homogenized (1:3, w/v) in chilled saline. The concentrations of IMM-H004 and IMM-H004G were then determined by LC-MS/MS.
The unidirectional transfer constant Kin (mL/min/g) was calculated using the following equation:(4) Kin=Qbr/Cpf[…] where Qbr/Cpf is the apparent brain distribution volume, Qbr is the measured amount of compound in brain tissue, Cpf is the concentration of compound in the perfusate, and T is the perfusion time.

[4] = cited from earlier work

| reduction of uptake by quinidine [1] | reduction of uptake by verapamil [1] | effect of inhibitors of OAT, OCT, OCTN, BCRP, and MRP on uptake [2] | change in Kin value with OATP inhibitor (In situ brain perfusion; rifamycin SV 100 μmol/L, 10 min perfusion, rat) | formation of IMM-H004G ([3]; IMM-H004 10 μmol/L, rat brain homogenate, 1 h) | increase in Kin value with P-gp inhibitor PSC833 compared to control (In situ brain perfusion; PSC833 5 μmol/L, 10 min perfusion, rat) [times] | Kin value relative to that of IMM-H004G (In situ brain perfusion; in situ rat brain perfusion) [times higher] | SMILES | stability of IMM-H004G (change in concentration) ([3]; 1 μmol/L, rat brain homogenate 2 mg/mL protein, 4 h) | brain exposure relative to the parent drug ([4]; rats) | elimination half-life ([4]; rat plasma and brain tissues, intravenous dosing) [h] |
| --- | --- | --- | --- | --- | --- | --- | --- | --- | --- | --- |
| not affected | not affected | No significant impact | no significant change | – | – | – | COc1cc(OC2OC(C(=O)O)C(O)C(O)C2O)cc2oc(=O)c(N3CCN(C)CC3)c(C)c12 (stereo not shown) [IMM-H004G] | did not result in a reduction in its concentration | six times higher | – |
| 57.7% | 61.5% | No significant impact | – | time-dependent | 4.3 | 18 | COc1cc(O)cc2oc(=O)c(N3CCN(C)CC3)c(C)c12 [IMM-H004] | – | – | < 1 |
